From PMC9652372, “Glycolytic flux control by drugging phosphoglycolate phosphatase” (Nature Communications, 2022)
Values joined by “and” are separate entries in the source; they are usually repeats but may differ in a detail not shown here. Equal entries are not always repeated.

Key:
murine PGP [1] = biological target: T1, murine PGP (Mus musculus, UniProt Q8CHP8); experiment: IC50 determination, murine PGP, 2-phospho-L-lactate (2PL) dephosphorylation; details: for M.m PGP on 2- Phospho-L-lactate: activity, control = 100
T1 sequence (Q8CHP8 1-321): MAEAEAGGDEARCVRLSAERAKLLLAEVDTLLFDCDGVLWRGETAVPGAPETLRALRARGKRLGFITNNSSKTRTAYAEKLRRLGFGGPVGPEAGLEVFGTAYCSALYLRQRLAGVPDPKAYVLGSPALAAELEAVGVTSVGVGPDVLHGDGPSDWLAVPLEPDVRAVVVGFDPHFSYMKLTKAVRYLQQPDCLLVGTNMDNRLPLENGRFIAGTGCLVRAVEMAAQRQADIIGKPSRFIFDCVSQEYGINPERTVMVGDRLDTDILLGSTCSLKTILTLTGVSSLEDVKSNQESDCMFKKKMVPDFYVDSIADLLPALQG

murine PGP-WT = biological target: T2, murine PGP-WT (Mus musculus, UniProt Q8CHP8); experiment: Isothermal titration calorimetry, PGP-WT; assay type: binding; details: ITC; for Kd: murine PGP
T2 construct: His6 (N, cleaved yes); made in house; host or cells: Escherichia coli BL21 (DE3), pETM11, co-expressed with groES-groEL-tig
T2 sequence (Q8CHP8 1-321): T1 sequence (Q8CHP8 1-321)
Procedure: Purified murine PGP-WT or PGP-P127E was dialyzed overnight against ITC buffer (30 mM HEPES, 30 mM NaCl, 5 mM MgCl2, 1 mM tris(2-carboxyethyl)phosphine/TCEP; pH 7.5). All calorimetric measurements were performed at 25 °C on an ITC200 microcalorimeter (GE Healthcare). Experiments were conducted with a fixed concentration of 2% DMSO. […] To reduce the effects of ligand leakage from the syringe during baseline equilibration, the heat release of a single 1.2 μL injection was recorded prior to the actual titration experiment, and discarded during data analysis with Nitpic 2.0.7[45]. To determine background heats of dilution, control experiments of ligand into buffer, buffer into protein and buffer into buffer titrations were performed.

murine PGP [2] = biological target: T1, murine PGP; experiment: SAR: CP1, CP2 and analogs on PGP phosphatase activity (PG); assay type: biochemical; set-up: His6 (N, cleaved yes); made in house; host or cells: Escherichia coli BL21 (DE3), pETM11, co-expressed with groES-groEL-tig; details: for inhibition of mPGP activity at 40 µM CP compared to DMSO control (%): single experiments Exp #1-3; for remaining activity at 2 µM: CP log[M] -5.69897; for remaining activity at 1 µM: CP log[M] -6; for remaining activity at 0.5 µM: CP log[M] -6.30103; for remaining activity at […]: CP log[M] -6.60206; for remaining activity at 0.125 µM: CP log[M] -6.90309; for remaining activity at 0.0625 µM: CP log[M] -7.20412
Procedure: However, the DMSO concentration was kept constant across each assay. For SAR experiments, all compound stocks were prepared at 10 mM in 100% DMSO. A constant final DMSO concentration of 0.4% was maintained under all conditions, and solvent control samples contained 0.4% DMSO without compounds.
PGP phosphatase activity were assessed using recombinant, purified murine PGP and PG as a

NT5C1A = biological target: T3, NT5C1A (Homo sapiens, UniProt Q9BXI3); experiment: In vitro phosphatase activity assay, NT5C1A (AMP); assay type: biochemical; details: DMSO control = 100, read-out: NT5C1A activity on AMP in presence of CP relative to DMSO controls; for remaining activity at 50 µM: CP log[M] -4.30103; for remaining activity at 40 µM: CP log[M] -4.39794; for remaining activity at 30 µM: CP log[M] -4.52288; for remaining activity at 25 µM: CP log[M] -4.60206; for remaining activity at 20 µM: CP log[M] -4.69897; for remaining activity at 15 µM: CP log[M] -4.82391; for remaining activity at 10 µM: CP log[M] -5; for remaining activity at 5 µM: CP log[M] -5.30103; for remaining activity at […]: CP log[M] -5.60206
T3 construct: purchased Origene #TP324617
T3 sequence (Q9BXI3 1-368): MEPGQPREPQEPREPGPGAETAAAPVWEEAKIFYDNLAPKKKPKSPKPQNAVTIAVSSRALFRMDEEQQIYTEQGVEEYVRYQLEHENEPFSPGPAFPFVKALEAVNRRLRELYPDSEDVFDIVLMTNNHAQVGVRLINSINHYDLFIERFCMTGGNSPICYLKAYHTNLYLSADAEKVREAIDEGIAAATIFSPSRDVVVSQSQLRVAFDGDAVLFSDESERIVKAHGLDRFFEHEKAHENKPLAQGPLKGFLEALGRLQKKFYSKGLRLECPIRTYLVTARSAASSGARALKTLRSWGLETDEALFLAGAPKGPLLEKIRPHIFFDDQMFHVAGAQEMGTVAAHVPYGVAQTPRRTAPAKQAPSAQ
Procedure: Purified human NT5C1A (NM_032526, #TP324617) and purified human PHOSPHO1 (NM_178500, #TP314434) were from Origene. […] Data were analyzed with GraphPad Prism 7.04. […] Data are mean values ± S.E.M. of n=3 independent experiments.

[3] = read-out: mPGP activity in presence of CP relative to DMSO controls, mPGP on PG (norm.)

SMILES	Kd (murine PGP-WT; 25 °C, mean ± S.E.M., n = 3) [nM]	Kd (murine PGP-WT; single replicates)	dG (murine PGP-WT; single replicates)	dH (murine PGP-WT; single replicates)	dS (murine PGP-WT; single replicates)	inhibition of mPGP activity at 40 µM CP compared to DMSO control (%) (murine PGP [2])	remaining activity at 2 µM (murine PGP [2]; [3]) [%]	remaining activity at 1 µM (murine PGP [2]; [3]) [%]	remaining activity at 0.5 µM (murine PGP [2]; [3]) [%]	remaining activity at […] (murine PGP [2]; [3]) [%]	remaining activity at 0.125 µM (murine PGP [2]; [3]) [%]	remaining activity at 0.0625 µM (murine PGP [2]; [3]) [%]	remaining activity at 50 µM (NT5C1A) [%]	remaining activity at 40 µM (NT5C1A) [%]	remaining activity at 30 µM (NT5C1A) [%]	remaining activity at 25 µM (NT5C1A) [%]	remaining activity at 20 µM (NT5C1A) [%]	remaining activity at 15 µM (NT5C1A) [%]	remaining activity at 10 µM (NT5C1A) [%]	remaining activity at 5 µM (NT5C1A) [%]	further results
O=C(Nc1ccccc1C(=O)O)c1ccc(Oc2ccc(C(=O)Nc3ccccc3C(=O)O)cc2)cc1 [CP1]	780	850 nM and 790 nM and 710 nM	-8.282 kcal/mol and -8.325 kcal/mol and -8.393 kcal/mol	-5.583 kcal/mol and -4.903 kcal/mol and -5.696 kcal/mol	9.052 cal/Mol*K and 11.478 cal/Mol*K and 9.044 cal/Mol*K	92.9348% and 99.7175% and 99.6139%	11.3	24.7	35.5	66.1	76.3	88.7	13.1	16.3	38.9	50.7	57	83.3	90.5	104	IC50 (murine PGP [1]): 310 ± 30 nM; M.m PGP on 2- Phospho-L-lactate (murine PGP [1]; CP1 log[M] -5.04576): 4.1667 and 4.9853 and 5.6548; M.m PGP on 2- Phospho-L-lactate (murine PGP [1]; CP1 log[M] -5.52288): 7.7778 and 8.7977 and 9.2262; M.m PGP on 2- Phospho-L-lactate (murine PGP [1]; CP1 log[M] -6): 23.0556 and 24.9267 and 23.8095; M.m PGP on 2- Phospho-L-lactate (murine PGP [1]; CP1 log[M] -6.47712): 45.5556 and 51.3196 and 45.8333; M.m PGP on 2- Phospho-L-lactate (murine PGP [1]; CP1 log[M] -6.95424): 73.3333 and 81.2317 and 78.869; M.m PGP on 2- Phospho-L-lactate (murine PGP [1]; CP1 log[M] -7.43136): 88.6111 and 95.3079 and 85.7143; M.m PGP on 2- Phospho-L-lactate (murine PGP [1]; CP1 log[M] -7.90849): 96.3889 and 100.293 and 92.8571; remaining activity at 8 µM (murine PGP [2]; CP log[M] -5.09691, read-out: mPGP activity in presence of CP relative to DMSO controls, mPGP on PG (norm.)): 1.61%; remaining activity at 0.03125 µM (murine PGP [2]; CP log[M] -7.50515, read-out: mPGP activity in presence of CP relative to DMSO controls, mPGP on PG (norm.)): 93%; remaining activity at 0.0078125 µM (murine PGP [2]; CP log[M] -8.10721, read-out: mPGP activity in presence of CP relative to DMSO controls, mPGP on PG (norm.)): 101%; remaining activity at 80 µM (NT5C1A; CP log[M] -4.09691): 12.2%; remaining activity at 60 µM (NT5C1A; CP log[M] -4.22185): 13.1%; remaining activity at […] (NT5C1A): 86.9%
COc1ccc(C(=O)Nc2ccc(Cc3ccc(NC(=O)c4ccc(OC)c(OC)c4)c(C(=O)O)c3)cc2C(=O)O)cc1OC [CP2]	–	–	–	–	–	91.3408% and 89.3401% and 90.1099%	51.6	67.7	69	72.6	81.8	84.3	11.9	20.5	33.1	45.1	62.1	69	74.2	83.9	remaining activity at 16 µM (murine PGP [2]; CP log[M] -4.79588, read-out: mPGP activity in presence of CP relative to DMSO controls, mPGP on PG (norm.)): 20.6%; remaining activity at 4 µM (murine PGP [2]; CP log[M] -5.39794, read-out: mPGP activity in presence of CP relative to DMSO controls, mPGP on PG (norm.)): 34.3%; remaining activity at 0.015625 µM (murine PGP [2]; CP log[M] -7.80618, read-out: mPGP activity in presence of CP relative to DMSO controls, mPGP on PG (norm.)): 96%; remaining activity at […] (NT5C1A): 91.1%
O=C(O)c1cc(Nc2ccccc2C(=O)O)nc(Nc2ccccc2C(=O)O)n1 [CP3]	430	500 nM and 320 nM and 460 nM	-8.598 kcal/mol and -8.862 kcal/mol and -8.651 kcal/mol	-6.466 kcal/mol and -5.835 kcal/mol and -6.568 kcal/mol	7.151 cal/Mol*K and 10.151 cal/Mol*K and 6.986 cal/Mol*K	–	–	–	–	–	–	–	–	–	–	–	–	–	–	–	–
